The target of one assay is human 5-HT7 receptor (Homo sapiens, UniProt P34969). As to the kind of experiment: Cross-reactivity binding, human 5-HT7 receptor.
The target of a further assay is T1, human 5HT1F receptor (Homo sapiens, UniProt P30939).
T1 sequence (P30939 1-366): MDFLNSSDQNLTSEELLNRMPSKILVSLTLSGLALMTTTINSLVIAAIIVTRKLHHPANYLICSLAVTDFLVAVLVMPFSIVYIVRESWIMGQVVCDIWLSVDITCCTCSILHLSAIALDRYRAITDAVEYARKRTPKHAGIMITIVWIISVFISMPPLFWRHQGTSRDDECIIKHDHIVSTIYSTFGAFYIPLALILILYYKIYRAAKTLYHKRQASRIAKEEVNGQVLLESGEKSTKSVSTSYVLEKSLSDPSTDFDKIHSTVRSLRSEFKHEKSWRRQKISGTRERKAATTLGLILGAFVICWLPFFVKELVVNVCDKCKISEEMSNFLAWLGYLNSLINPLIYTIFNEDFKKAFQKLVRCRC
As to the kind of experiment: Cross-reactivity binding, human 5HT1F receptor.

A further assay has as its target human 5HT1E receptor (Homo sapiens, UniProt P28566). Kind of assay: Cross-reactivity binding, human 5HT1E receptor.
A further assay has as its target 5HT1D2 (Homo sapiens, UniProt P28222). As to the kind of experiment: Cross-reactivity binding, human 5HT1D2 receptor.
A further assay concerns the target human 5HT1Dα receptor (Homo sapiens, UniProt P28221). As to the kind of experiment: Cross-reactivity binding, human 5HT1Dα receptor.
The target of assay [1] is human α1d adrenergic receptor (Homo sapiens, UniProt P25100). As to the kind of experiment: Cross-reactivity binding, cloned human α1d receptor.
Assay [2] has as its target human α1b adrenergic receptor (Homo sapiens, UniProt P35368). As to the kind of experiment: Cross-reactivity binding, cloned human α1b receptor.
Assay [3] deals with human α1a adrenergic receptor (Homo sapiens, UniProt P35348). As to the kind of experiment: Cross-reactivity binding, cloned human α1a receptor.
Assay [4] has as its target human α2A adrenergic receptor (Homo sapiens, UniProt P08913). As to the kind of experiment: Cross-reactivity binding, cloned human α2a receptor.
Assay [5] concerns the target human α2B adrenergic receptor (Homo sapiens, UniProt P18089). Kind of assay: Cross-reactivity binding, cloned human α2b receptor.
For assay [6], the target named is human α2C adrenergic receptor (Homo sapiens, UniProt P18825). As to the kind of experiment: Cross-reactivity binding, cloned human α2c receptor.
For a further assay, the target named is human Y1 receptor (Homo sapiens, UniProt P25929). Kind of assay: ^125I-PYY binding of compounds to human Y1 receptor, stably transfected cells.
Another assay addresses T2, human Y2 receptor (Homo sapiens, UniProt P49146).
T2 sequence (P49146 1-381): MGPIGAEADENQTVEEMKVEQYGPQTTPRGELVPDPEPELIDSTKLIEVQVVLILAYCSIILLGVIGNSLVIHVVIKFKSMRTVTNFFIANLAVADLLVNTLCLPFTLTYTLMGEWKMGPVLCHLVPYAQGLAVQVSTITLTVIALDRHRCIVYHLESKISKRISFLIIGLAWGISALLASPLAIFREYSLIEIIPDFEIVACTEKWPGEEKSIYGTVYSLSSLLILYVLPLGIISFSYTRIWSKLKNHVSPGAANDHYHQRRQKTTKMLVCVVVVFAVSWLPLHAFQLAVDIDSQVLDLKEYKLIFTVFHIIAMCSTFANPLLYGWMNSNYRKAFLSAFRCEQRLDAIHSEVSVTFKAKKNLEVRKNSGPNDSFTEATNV
Kind of assay: ^125I-PYY binding of compounds to human Y2 receptor, stably transfected cells.

The next assay has as its target human Y4 receptor (Homo sapiens, UniProt P50391). As to the kind of experiment: ^125I-PYY binding of compounds to human Y4 receptor, stably transfected cells.

Molecules are shown by their SMILES. pKi: −log10 of the molar value. Structures can show the parent of a compound that is named as a salt.

human 5HT1Dα receptor, sequence (P28221 whole entry): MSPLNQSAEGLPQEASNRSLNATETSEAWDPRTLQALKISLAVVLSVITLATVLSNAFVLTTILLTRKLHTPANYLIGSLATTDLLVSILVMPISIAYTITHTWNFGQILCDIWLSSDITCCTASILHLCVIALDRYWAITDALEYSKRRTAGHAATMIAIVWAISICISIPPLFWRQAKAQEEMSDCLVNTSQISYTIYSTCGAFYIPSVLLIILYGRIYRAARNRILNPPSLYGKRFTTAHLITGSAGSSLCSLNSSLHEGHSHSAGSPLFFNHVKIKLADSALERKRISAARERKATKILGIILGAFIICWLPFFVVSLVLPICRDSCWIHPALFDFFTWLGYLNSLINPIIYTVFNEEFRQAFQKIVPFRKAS
human α2C adrenergic receptor, sequence (P18825 whole entry): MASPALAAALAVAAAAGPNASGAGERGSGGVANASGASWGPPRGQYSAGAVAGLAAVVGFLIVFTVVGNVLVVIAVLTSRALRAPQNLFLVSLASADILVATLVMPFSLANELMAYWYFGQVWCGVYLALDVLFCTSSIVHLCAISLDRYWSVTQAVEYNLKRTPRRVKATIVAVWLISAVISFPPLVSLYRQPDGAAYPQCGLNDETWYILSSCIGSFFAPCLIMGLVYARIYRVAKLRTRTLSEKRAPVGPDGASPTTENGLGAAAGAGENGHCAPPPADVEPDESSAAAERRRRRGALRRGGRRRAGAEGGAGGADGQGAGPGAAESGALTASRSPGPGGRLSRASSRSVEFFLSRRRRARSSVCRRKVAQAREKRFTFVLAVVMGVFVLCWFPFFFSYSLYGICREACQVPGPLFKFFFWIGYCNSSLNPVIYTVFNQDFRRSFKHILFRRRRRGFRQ
human α2A adrenergic receptor, sequence (P08913 whole entry): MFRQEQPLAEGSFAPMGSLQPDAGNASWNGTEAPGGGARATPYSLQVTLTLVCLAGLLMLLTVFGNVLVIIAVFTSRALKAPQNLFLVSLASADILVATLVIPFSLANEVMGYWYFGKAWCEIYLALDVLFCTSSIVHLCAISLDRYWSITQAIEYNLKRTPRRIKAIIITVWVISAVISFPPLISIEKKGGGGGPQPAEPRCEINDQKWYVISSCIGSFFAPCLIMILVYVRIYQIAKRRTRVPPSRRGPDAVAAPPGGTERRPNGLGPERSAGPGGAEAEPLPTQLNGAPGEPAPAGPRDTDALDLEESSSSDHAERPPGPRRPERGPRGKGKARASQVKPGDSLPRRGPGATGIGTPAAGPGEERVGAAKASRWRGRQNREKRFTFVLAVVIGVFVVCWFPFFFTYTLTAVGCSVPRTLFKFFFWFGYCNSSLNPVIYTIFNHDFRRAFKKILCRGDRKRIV
5HT1D2, sequence (P28222 whole entry): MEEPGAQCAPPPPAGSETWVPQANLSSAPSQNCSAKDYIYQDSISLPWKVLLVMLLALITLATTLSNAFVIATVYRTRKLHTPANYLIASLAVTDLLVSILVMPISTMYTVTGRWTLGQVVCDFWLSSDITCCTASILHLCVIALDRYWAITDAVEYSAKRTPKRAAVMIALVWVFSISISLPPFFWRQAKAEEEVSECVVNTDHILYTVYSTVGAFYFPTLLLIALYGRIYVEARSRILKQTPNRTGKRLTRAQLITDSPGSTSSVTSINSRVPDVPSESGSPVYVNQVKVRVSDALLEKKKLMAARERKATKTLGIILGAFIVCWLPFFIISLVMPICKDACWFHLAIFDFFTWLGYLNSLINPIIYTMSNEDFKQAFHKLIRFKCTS
human α2B adrenergic receptor, sequence (P18089 whole entry): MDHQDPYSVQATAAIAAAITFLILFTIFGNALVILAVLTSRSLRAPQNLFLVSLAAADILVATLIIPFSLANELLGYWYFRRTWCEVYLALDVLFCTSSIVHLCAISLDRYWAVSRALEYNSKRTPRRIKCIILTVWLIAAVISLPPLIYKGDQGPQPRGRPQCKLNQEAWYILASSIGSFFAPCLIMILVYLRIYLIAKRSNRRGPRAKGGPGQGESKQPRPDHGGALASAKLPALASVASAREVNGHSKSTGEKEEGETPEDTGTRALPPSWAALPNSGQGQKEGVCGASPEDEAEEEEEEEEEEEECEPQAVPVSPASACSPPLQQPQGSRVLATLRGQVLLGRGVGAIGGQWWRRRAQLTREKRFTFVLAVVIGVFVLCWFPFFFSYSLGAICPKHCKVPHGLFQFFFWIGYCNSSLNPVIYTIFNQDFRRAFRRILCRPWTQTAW
human α1a adrenergic receptor, sequence (P35348 whole entry): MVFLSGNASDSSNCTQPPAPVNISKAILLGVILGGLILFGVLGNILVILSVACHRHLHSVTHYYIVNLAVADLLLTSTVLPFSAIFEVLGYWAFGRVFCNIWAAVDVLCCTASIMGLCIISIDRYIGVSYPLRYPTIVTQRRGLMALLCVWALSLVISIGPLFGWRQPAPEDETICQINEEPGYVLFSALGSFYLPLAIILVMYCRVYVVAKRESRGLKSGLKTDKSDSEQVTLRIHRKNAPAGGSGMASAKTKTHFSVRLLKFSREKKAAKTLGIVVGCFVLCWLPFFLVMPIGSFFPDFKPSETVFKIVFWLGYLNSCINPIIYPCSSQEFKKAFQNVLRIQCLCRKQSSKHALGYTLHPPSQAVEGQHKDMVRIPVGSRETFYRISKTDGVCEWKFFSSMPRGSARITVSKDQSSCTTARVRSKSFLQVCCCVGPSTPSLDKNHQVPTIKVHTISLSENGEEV
human α1b adrenergic receptor, sequence (P35368 whole entry): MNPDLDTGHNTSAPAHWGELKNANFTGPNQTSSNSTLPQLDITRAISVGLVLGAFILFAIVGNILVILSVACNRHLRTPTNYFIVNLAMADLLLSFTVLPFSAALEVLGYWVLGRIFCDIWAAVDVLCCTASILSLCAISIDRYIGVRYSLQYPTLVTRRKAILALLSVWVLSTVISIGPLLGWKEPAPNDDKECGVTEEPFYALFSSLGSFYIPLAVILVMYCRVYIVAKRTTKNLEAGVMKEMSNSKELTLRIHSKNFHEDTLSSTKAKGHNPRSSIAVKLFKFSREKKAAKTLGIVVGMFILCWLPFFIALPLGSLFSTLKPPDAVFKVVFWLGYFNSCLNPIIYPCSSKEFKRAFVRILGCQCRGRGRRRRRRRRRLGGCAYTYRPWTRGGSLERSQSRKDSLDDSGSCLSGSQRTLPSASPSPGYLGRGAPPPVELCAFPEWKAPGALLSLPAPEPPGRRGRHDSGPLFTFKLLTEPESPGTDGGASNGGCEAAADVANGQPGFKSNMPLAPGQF
human α1d adrenergic receptor, sequence (P25100 whole entry): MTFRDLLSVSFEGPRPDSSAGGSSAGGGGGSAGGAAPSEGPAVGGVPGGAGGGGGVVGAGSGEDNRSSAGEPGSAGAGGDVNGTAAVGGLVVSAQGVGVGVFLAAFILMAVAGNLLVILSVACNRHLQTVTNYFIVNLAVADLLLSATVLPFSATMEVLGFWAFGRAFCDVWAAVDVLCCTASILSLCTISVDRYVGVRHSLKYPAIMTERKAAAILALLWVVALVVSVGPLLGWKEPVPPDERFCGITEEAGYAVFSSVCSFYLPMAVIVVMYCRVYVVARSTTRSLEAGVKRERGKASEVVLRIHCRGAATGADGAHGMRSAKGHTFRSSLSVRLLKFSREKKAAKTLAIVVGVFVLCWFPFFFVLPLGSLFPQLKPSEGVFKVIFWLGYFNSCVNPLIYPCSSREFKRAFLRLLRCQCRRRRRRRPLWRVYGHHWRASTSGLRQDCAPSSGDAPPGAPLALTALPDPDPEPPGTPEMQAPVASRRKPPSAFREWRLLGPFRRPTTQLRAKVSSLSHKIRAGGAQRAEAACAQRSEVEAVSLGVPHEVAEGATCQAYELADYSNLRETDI
human Y1 receptor, sequence (P25929 whole entry): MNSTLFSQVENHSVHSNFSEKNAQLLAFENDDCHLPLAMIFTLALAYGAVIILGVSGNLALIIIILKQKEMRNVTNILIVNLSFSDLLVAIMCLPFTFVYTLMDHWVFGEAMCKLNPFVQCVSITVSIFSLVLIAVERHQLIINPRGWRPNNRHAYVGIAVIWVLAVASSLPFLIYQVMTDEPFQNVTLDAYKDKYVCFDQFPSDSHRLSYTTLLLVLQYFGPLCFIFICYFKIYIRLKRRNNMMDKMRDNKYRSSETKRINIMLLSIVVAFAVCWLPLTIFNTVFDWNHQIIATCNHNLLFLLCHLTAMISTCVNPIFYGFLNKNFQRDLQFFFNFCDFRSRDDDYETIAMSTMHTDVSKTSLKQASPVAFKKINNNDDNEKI
human Y4 receptor, sequence (P50391 whole entry): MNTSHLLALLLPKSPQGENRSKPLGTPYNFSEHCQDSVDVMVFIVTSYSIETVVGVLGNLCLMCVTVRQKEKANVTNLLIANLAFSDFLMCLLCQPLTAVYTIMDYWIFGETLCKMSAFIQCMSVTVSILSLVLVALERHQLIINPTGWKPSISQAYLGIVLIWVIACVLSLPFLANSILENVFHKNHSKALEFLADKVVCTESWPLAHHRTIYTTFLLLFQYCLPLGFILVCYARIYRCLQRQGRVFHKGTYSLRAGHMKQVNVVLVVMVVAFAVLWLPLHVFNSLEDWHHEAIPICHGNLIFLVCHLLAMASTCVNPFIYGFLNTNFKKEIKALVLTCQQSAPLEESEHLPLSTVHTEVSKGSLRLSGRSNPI
human 5HT1E receptor, sequence (P28566 whole entry): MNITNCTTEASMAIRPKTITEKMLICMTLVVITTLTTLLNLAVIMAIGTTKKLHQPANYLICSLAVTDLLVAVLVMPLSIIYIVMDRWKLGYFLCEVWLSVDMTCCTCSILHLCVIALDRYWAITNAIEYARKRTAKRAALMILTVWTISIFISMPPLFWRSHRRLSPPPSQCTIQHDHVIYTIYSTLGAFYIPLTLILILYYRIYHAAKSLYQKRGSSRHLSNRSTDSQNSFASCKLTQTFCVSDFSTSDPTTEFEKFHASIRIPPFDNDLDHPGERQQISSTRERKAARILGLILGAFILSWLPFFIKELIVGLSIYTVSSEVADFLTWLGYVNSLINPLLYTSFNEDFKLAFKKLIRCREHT
Description for human Y1 receptor: (§1) To prepare membranes from baculovirus infected cells, 2×10^7 Sf21 cells were grown in 150 mm tissue culture dishes and infected with a high-titer stock of hY5BB3.
Description for human Y2 receptor: as §1
Description for human Y4 receptor: as §1

As to `CC(=O)O[C@H]1CC[C@H](Nc2nc(Nc3ccccc3)c3ccccc3n2)CC1` [Compound 7, trans-2-(4-Acetoxy-cyclohexylamino)-4-phenylamino-quinazoline Hydrochloride], the pKi – broadly, −log10 of the Ki, conventionally taken in molar units – on human 5-HT7 receptor is 6.64; at human 5HT1F receptor it was 5.30; on human 5HT1E receptor it was 5.30; on 5HT1D2, 5.30; at human 5HT1Dα receptor, 5.85; in assay [1], 6.46. Besides, the pKi in assay [2] is 6.08; in assay [3], 6.06; in [4], 7.16; in assay [5] it was 6.09; in assay [6], 6.85; on human Y1 receptor, 5.66. The pKi was 5.54 on human Y2 receptor and 5.15 at human Y4 receptor.

The record behind these values is patent publication US6645774B1 (Synaptic Pharmaceutical Corporation, priority 1994, dated 2003).
